{"source": "patent US12344578B2", "about": "“Salt forms of bempedoic acid and methods for using the same” (Esperion Therapeutics, Inc., priority 2019, dated 2025)", "experiment": "Thermogravimetric analysis (TGA), weight loss on heating", "format": "physicochemical", "description": "Thermogravimetric analysis (TGA) data for the crystalline form of the compound of formula (V) were collected using a TA Discovery 550 TGA instrument. The TGA instrument was calibrated using a nickel reference standard. Samples of the crystalline form of the compound of formula (V) were placed in open platinum sample pans and heated at a rate of 10° C./minute from about ambient temperature (˜25° C.) to about 315° C.\nTGA data were collected using a TA Discovery 550 TGA instrument. The TGA instrument was calibrated using a nickel reference standard. Samples were placed in open platinum sample pans and heated at a rate of 10° C./minute from about ambient temperature (˜25° C.) to about 315° C.", "data": [{"compound": "CC(C)(CCCCCC(O)CCCCCC(C)(C)C(=O)O)C(=O)O", "note": "[8-hydroxy-2,2,14,14-tetramethylpentadecanedioic acid]", "values": [{"measurement": "TGA weight loss prior to decomposition", "setting": "heated at 10° C./minute from ~25° C. to about 315° C.", "value": "negligible weight loss"}]}, {"compound": "CC(C)(CCCCCC(O)CCCCCC(C)(C)C(=O)[O-])C(=O)[O-].[Ca+2]", "note": "[Crystalline Form A of the calcium salt]", "values": [{"measurement": "TGA weight loss", "setting": "up to 62.8° C.", "value": "Negligible weight loss"}]}, {"compound": "CC(C)(CCCCCC(O)CCCCCC(C)(C)C(=O)[O-])C(=O)[O-].[Ca+2]", "note": "[Crystalline Form B of the calcium salt]", "values": [{"measurement": "TGA weight loss", "setting": "up to 86.9° C.", "value": 2.23, "unit": "%"}]}]}
